The values that follow are results of earlier work, collected in US20190307762A1, “METHODS AND COMPOSITIONS FOR THE TREATMENT OF TRAUMA AND STRESSOR-RELATED DISORDERS” (priority 2016, published 2019).

The structures appear in SMILES notation.

For data set [1] the following is noted: for Equivalent amount: dose equivalent to 20 mg hydrocortisone; for Hydrocortisone equivalent (1 mg of the glucocorticoid corresponds to the listed amount in mg of hydrocortisone): per 1 mg of the glucocorticoid.
Data set [2] relates to histamine (H1.H2), serotonin (5-HT2), dopamine (D2.D1), adrenergic (al) receptors. To be noted: in vitro; decreasing order H1.H2, 5-HT2, D2.D1, al.
The test system of data set [3] is serotonin (5-HT) or noradrenaline reuptake.
The next data set relates to cholinergic receptors. As to conditions: in vitro.
For data set [4] the following is noted: in vivo.
In data set [5] the test system is generalized anxiety disorders. To be noted: versus placebo and alprazolam.
Another data set deals with neurological tissue. As to conditions: preclinical; linked to binding to sigma one receptors.
In the next data set the target is sigma 2 receptors (Homo sapiens, UniProt Q5BJF2).
For the next data set, the target named is cytochrome P-450 3A4 (Homo sapiens, UniProt P08684).
Sequence of cytochrome P-450 3A4 (P08684 whole entry): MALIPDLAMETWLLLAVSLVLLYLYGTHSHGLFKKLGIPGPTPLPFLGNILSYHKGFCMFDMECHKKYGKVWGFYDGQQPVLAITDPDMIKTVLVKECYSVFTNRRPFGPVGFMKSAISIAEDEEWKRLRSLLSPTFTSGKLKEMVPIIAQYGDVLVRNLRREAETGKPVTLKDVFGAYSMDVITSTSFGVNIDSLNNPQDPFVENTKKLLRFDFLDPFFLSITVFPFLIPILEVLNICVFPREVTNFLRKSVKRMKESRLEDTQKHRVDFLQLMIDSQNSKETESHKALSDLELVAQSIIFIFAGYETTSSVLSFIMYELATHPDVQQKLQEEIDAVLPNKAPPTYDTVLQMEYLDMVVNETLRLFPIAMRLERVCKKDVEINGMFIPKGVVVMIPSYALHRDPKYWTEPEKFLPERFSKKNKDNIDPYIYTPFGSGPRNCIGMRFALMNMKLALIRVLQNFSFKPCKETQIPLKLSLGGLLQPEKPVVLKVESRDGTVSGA

Sequence of sigma 2 receptors (Q5BJF2 whole entry): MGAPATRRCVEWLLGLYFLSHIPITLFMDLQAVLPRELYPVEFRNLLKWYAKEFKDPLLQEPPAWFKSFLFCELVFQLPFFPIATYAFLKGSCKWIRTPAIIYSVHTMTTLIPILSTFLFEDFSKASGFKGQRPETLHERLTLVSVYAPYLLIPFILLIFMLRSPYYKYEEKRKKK

With `C[C@H]1C[C@H]2[C@@H]3CCC4=CC(=O)C=C[C@]4(C)[C@@]3(F)[C@@H](O)C[C@]2(C)[C@@]1(O)C(=O)CO` [Betarnethasone], in data set [1], the “Equivalent amount” value is 0.75 mg and the “Hydrocortisone equivalent (1 mg of the glucocorticoid corresponds to the listed amount in mg of hydrocortisone)” value (from here on “Hydrocortisone equivalent”) is recorded as 26.66 mg.

On to `CC(=O)OCC(=O)[C@@]1(O)CC[C@H]2[C@@H]3CCC4=CC(=O)CC[C@]4(C)[C@H]3C(=O)C[C@@]21C` [Cortisone acetate], for which, in data set [1], the “Equivalent amount” value is given as 25 mg and the “Hydrocortisone equivalent” value is given as 0.8 mg.

Turning to `C[C@]12CCC(=O)C=C1CC[C@@H]1[C@@H]2[C@@H](O)C[C@@]2(C)[C@H]1CC[C@]2(O)C(=O)CO` [Hydrocortisone], in data set [1], the “Equivalent amount” value is reported as 20 mg and the “Hydrocortisone equivalent” value is recorded as 1 mg.

For `C[C@@H]1C[C@H]2[C@@H]3C[C@H](F)C4=CC(=O)C=C[C@]4(C)[C@H]3[C@@H](O)C[C@]2(C)[C@@]1(O)C(=O)CO` [Pararnethasone], in data set [1], the “Equivalent amount” value is listed as 2 mg and the “Hydrocortisone equivalent” value is 10 mg.

With `C[C@]12C=CC(=O)C=C1CC[C@@H]1[C@@H]2[C@@H](O)C[C@@]2(C)[C@H]1CC[C@]2(O)C(=O)CO` [Prednisolone], in [1], the “Equivalent amount” value was 5 mg and the “Hydrocortisone equivalent” value is given as 4 mg.

Regarding `C[C@]12C=CC(=O)C=C1CC[C@H]1[C@@H]3C[C@@H](O)[C@](O)(C(=O)CO)[C@@]3(C)C[C@H](O)[C@@]12F` [Triamcinolone], in [1], the “Equivalent amount” value is listed as 4 mg and the “Hydrocortisone equivalent” value is 5 mg.

As for `OCCN1CCN(CCCN2c3ccccc3C=Cc3ccccc32)CC1` [opipramol], the receptor blockade result is reported as “blocks the following receptors in decreasing order” in data set [2] and “very weakly” in the data set on cholinergic receptors. Further, the sigma ligand strength result in the data set on sigma is “strong sigma ligand”. Moreover, the reuptake inhibiting properties result in [3] is on record as “without reuptake inhibiting properties”. Besides, the “risk of drug dependence” value in data set [4] is on record as “no risk of drug dependence”. Also, the anxiolytic efficacy entry in data set [5] was “superiority over placebo and similar efficacy to alprazolam”. For the same compound, the “protection against glutamate mediated toxicity” value in the data set with neurological tissue is given as “ability to protect neurological tissue against the effects of glutamate mediated toxicity”. Moreover, the “signaling at sigma 2 receptors” value on sigma 2 receptors is “down regulate signaling at sigma 2 receptors”. In addition, the “levels of cGMP” value in the data set with cGMP is reported as “induces increased levels of cGMP”. Also, on cytochrome P-450 3A4, the CYP substrate entry is “CYP3A substrate”.
